This note sets out measurements from patent US12421254B2, “KRAS modulators and uses thereof” (Quanta Therapeutics, Inc., priority 2023, dated 2025).

Test [1] addresses GST-tagged KRAS-G12V (2-169) (Homo sapiens, UniProt P01116, G12V). Kind of test: Nucleotide exchange assay (NEA), SOS-mediated, HTRF, KRAS G12V. The test is classed as biochemical. Conditions: Table 4; IC50 extracted at 90 min; 80 nM SOS. Put shortly: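 Exchange onto fluorescent GTP-DY-647P1 (150 nM final) catalysed by 80 nM SOS1cat was followed by Tb-anti-GST HTRF at RT for up to 90 min, after 1 h compound pre-incubation with 0.25 nM GST-tagged KRAS-G12V (2-169), pH 7.3. DMSO = 0%, no-SOS blank = 100%; 4-parameter IC50 taken at 90 min.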
On the technique in general: In TR-FRET formats the signal depends on donor and acceptor labels being close together.

For test [2], the target named is GST-tagged KRAS-G12D (2-169) (Homo sapiens, UniProt P01116, G12D). Briefly: Nucleotide exchange assay (NEA), SOS-mediated, HTRF, KRAS G12D. The conditions noted are these: Table 4; IC50 extracted at 30 min; 20 nM SOScat; read-out: NEA G12D IC50. The test is classed as biochemical. Put shortly: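 SOS1cat-driven loading of fluorescent GTP-DY-647P1 (150 nM) onto GST-KRAS-G12D (2-169, 0.25 nM) read by time-resolved FRET; SOScat 20 nM, compound preincubated with KRAS 1 h at RT. Signal blanked to no-SOS reactions, normalized to DMSO; IC50 fitted from the 30-min read.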
Sequence of GST-tagged KRAS-G12D (2-169) (P01116 2-169 isoform P01116-2 G12D): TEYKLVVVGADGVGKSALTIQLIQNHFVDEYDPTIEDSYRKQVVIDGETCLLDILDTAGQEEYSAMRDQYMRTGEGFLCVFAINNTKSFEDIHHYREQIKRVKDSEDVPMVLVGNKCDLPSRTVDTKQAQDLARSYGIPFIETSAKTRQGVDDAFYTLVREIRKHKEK

What is called IC50 is the midpoint of a concentration-inhibition curve.

Bounds are passed on as bounds.

Sequence of GST-tagged KRAS-G12V (2-169) (P01116 2-169 isoform P01116-2 G12V): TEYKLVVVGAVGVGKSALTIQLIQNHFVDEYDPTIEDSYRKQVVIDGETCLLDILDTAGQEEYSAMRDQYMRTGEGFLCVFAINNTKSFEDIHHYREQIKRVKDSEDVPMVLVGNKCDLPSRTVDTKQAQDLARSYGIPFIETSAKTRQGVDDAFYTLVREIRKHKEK

Regarding `CC(Nc1nc(OC[C@@]23CCCN2C[C@H](F)C3)nc(N2CC3(CCc4sc(N)c(C#N)c43)C2)n1)c1cccnc1N` (stereo partly drawn) [Compound 88, 2-amino-1′-[4-[1-(2-amino-3-pyridyl)ethylamino]-6-[[(2R,8S)-2-fluoro-1,2,3,5,6,7-hexahydropyrrolizin-8-yl]methoxy]-1,3,5-triazin-2-yl]spiro[5,6-dihydrocyclopenta[b]thiophene-4,3′-azetidine]-3-carbonitrile], the IC50 in test [1] is less than 10 nM; in test [2] it was 100 to 1000 nM.

On to `C[C@]1(O)C[C@@H](O)CN(c2nc(OC[C@@]34CCCN3C[C@H](F)C4)nc(N3CC4(CCc5sc(N)c(C#N)c54)C3)n2)C1` [Compound 46, 2-amino-1′-[4-[(3S,5R)-3,5-dihydroxy-3-methyl-1-piperidyl]-6-[[(2R,8S)-2-fluoro-1,2,3,5,6,7-hexahydropyrrolizin-8-yl]methoxy]-1,3,5-triazin-2-yl]spiro[5,6-dihydrocyclopenta[b]thiophene-4,3′-azetidine]-3-carbonitrile], for which the IC50 was 10 to 100 nM in test [1] and 100 to 1000 nM in test [2].

For `C[C@@]1(O)CCCN(c2nc(OC[C@@]34CCCN3C[C@H](F)C4)nc(N3CC4(C3)c3c(sc(N)c3C#N)C[S+]4[O-])n2)C1` (stereo partly drawn) [Compound 126, 2-amino-5-oxo-1′-[4-[[(2R,8S)-2-fluoro-1,2,3,5,6,7-hexahydropyrrolizin-8-yl]methoxy]-6-[(3R)-3-hydroxy-3-methyl-1-piperidyl]-1,3,5-triazin-2-yl]spiro[6H-thieno[3,4-b]thiophene-4,3′-azetidine]-3-carbonitrile], the IC50 in test [1] lay in the range of 1000 to 20000 nM; in test [2], 10 to 100 nM.

Consider `N#CCC12CC1CN(c1nc(OC[C@@]34CCCN3C[C@H](F)C4)nc(N3CC4(CCc5sc(N)c(C#N)c54)C3)n1)C2` (stereo partly drawn) [Compound 42, 2-amino-1′-[4-[1-(cyanomethyl)-3-azabicyclo[3.1.0]hexan-3-yl]-6-[[(2R,8S)-2-fluoro-1,2,3,5,6,7-hexahydropyrrolizin-8-yl]methoxy]-1,3,5-triazin-2-yl]spiro[5,6-dihydrocyclopenta[b]thiophene-4,3′-azetidine]-3-carbonitrile], for which the results for the IC50 in test [1] and in test [2] were 100 to 1000 nM and 1000 to 20000 nM, respectively.

As for `N#Cc1c(N)sc2c1C1(CN(c3nc(OC[C@@]45CCCN4C[C@H](F)C5)nc(N4C5CSCC4C5)n3)C1)SC2` [Compound 269, 2-amino-1′-[4-[[(2R,8S)-2-fluoro-1,2,3,5,6,7-hexahydropyrrolizin-8-yl]methoxy]-6-(3-thia-6-azabicyclo[3.1.1]heptan-6-yl)-1,3,5-triazin-2-yl]spiro[6H-thieno[3,4-b]thiophene-4,3′-azetidine]-3-carbonitrile], the IC50 lay within 10 to 100 nM in test [1] and 100 to 1000 nM in test [2].

For `CCN(c1nc(OCC2(CO)CCCN2)nc(N2CC3(C2)SCc2sc(N)c(C#N)c23)n1)[C@H](C)c1cccnc1N` (stereo partly drawn) [Compound 208, 2-amino-1′-[4-[[(1R)-1-(2-amino-3-pyridyl)ethyl]-ethyl-amino]-6-[[2-(hydroxymethyl)pyrrolidin-2-yl]methoxy]-1,3,5-triazin-2-yl]spiro[6H-thieno[3,4-b]thiophene-4,3′-azetidine]-3-carbonitrile], the IC50 in test [1] and in test [2] was less than 10 nM each time.

Turning to `CCN(c1nc(OC[C@@H]2CC[C@@H]3CN(C)CCN32)nc(N2CC3(C2)SCc2sc(N)c(C#N)c23)n1)[C@H](C)c1cccnc1N` (mixture of isomers) [Compound 216, 1′-[4-[[(6SR,8aRS)-2-methyl-3,4,6,7,8,8a-hexahydro-1H-pyrrolo[1,2-a]pyrazin-6-yl]methoxy]-6-[[(1R)-1-(2-amino-3-pyridyl)ethyl]-ethyl-amino]-1,3,5-triazin-2-yl]-2-amino-spiro[6H-thieno[3,4-b]thiophene-4,3′-azetidine]-3-carbonitrile], the IC50 is less than 10 nM in test [1] and 100 to 1000 nM in test [2].

`CC(c1nccnc1N)N(C)c1nc(OC[C@@]23CCCN2C[C@H](F)C3)nc(N2CC3(CCc4sc(N)c(C#N)c43)C2)n1` (single isomer, unassigned) [Compound 116B, 2-amino-1′-[4-[[(1*)-1-(3-aminopyrazin-2-yl)ethyl]-methyl-amino]-6-[[(2R,8S)-2-fluoro-1,2,3,5,6,7-hexahydropyrrolizin-8-yl]methoxy]-1,3,5-triazin-2-yl]spiro[5,6-dihydrocyclopenta[b]thiophene-4,3′-azetidine]-3-carbonitrile]: the IC50 in test [1] lay in the range of 10 to 100 nM; in test [2], 100 to 1000 nM.

Turning to `N#Cc1c(N)sc2c1C1(CC2)CN(c2nc(OC[C@@]34CCCN3C[C@H](F)C4)nc(N3CCC[C@@H](O)C3)n2)C1` [Compound 23, 2-amino-1′-[4-[[(2R,8S)-2-fluoro-1,2,3,5,6,7-hexahydropyrrolizin-8-yl]methoxy]-6-[(3R)-3-hydroxy-1-piperidyl]-1,3,5-triazin-2-yl]spiro[5,6-dihydrocyclopenta[b]thiophene-4,3′-azetidine]-3-carbonitrile], the IC50 in test [1] and in test [2] was 100 to 1000 nM throughout.

Regarding `C[C@@]1(O)CCCN(c2nc(OC[C@]34CCCN3[C@H](COc3cc(C(F)(F)F)ncn3)CC4)nc(N3CC4(C3)SCc3sc(N)c(C#N)c34)n2)C1` (racemic) [Compound 252, 2-amino-1′-[4-[(3R)-3-hydroxy-3-methyl-1-piperidyl]-6-[[(3SR,8RS)-3-[[6-(trifluoromethyl)pyrimidin-4-yl]oxymethyl]-1,2,3,5,6,7-hexahydropyrrolizin-8-yl]methoxy]-1,3,5-triazin-2-yl]spiro[6H-thieno[3,4-b]thiophene-4,3′-azetidine]-3-carbonitrile], the IC50 in test [1] and in test [2] was less than 10 nM in each case.

For `COC[C@@H]1CC[C@@H](COc2nc(N3CC4(C3)SCc3sc(N)c(C#N)c34)nc(N(CC(F)F)C(C)c3cccnc3N)n2)N1` (mixture of isomers) [Compound 211, 2-amino-1′-[4-[[(1R)-1-(2-amino-3-pyridyl)ethyl]-(2,2-difluoroethyl)amino]-6-[[(2SR,5SR)-5-(methoxymethyl)pyrrolidin-2-yl]methoxy]-1,3,5-triazin-2-yl]spiro[6H-thieno[3,4-b]thiophene-4,3′-azetidine]-3-carbonitrile], the IC50 in test [1] and in test [2] was less than 10 nM in each case.

Regarding `CC(O)CN(c1nc(OC[C@@]23CCCN2C[C@H](F)C3)nc(N2CC3(C2)SCc2sc(N)c(C#N)c23)n1)C1(C#N)CC1` (stereo partly drawn) [Compound 261, 2-amino-1′-[4-[(1-cyanocyclopropyl)-(2-hydroxypropyl)amino]-6-[[(2R,8S)-2-fluoro-1,2,3,5,6,7-hexahydropyrrolizin-8-yl]methoxy]-1,3,5-triazin-2-yl]spiro[6H-thieno[3,4-b]thiophene-4,3′-azetidine]-3-carbonitrile], the IC50 in test [1] and in test [2] was less than 10 nM in each case.

Consider `CC(c1nccnc1N)N(C)c1nc(OC[C@@]23CCCN2C[C@H](F)C3)nc(N2CC3(CCc4sc(N)c(C#N)c43)C2)n1` (stereo partly drawn) [Compound 102, 2-amino-1′-[4-[1-(3-aminopyrazin-2-yl)ethyl-methyl-amino]-6-[[(2R,8S)-2-fluoro-1,2,3,5,6,7-hexahydropyrrolizin-8-yl]methoxy]-1,3,5-triazin-2-yl]spiro[5,6-dihydrocyclopenta[b]thiophene-4,3′-azetidine]-3-carbonitrile], for which the IC50 in test [1] was less than 10 nM; in test [2] it was 10 to 100 nM.

Take `CN(c1nc(OC[C@@]23CCCN2C[C@H](F)C3)nc(N2CC3(C2)SCc2sc(N)c(C#N)c23)n1)[C@H]1[C@H]2CN[C@@H]1C2` [Compound 257, 2-amino-1′-[4-[[(1R,4R,5S)-2-azabicyclo[2.1.1]hexan-5-yl]-methyl-amino]-6-[[(2R,8S)-2-fluoro-1,2,3,5,6,7-hexahydropyrrolizin-8-yl]methoxy]-1,3,5-triazin-2-yl]spiro[6H-thieno[3,4-b]thiophene-4,3′-azetidine]-3-carbonitrile]: the results for the IC50 in test [1] and in test [2] were 10 to 100 nM and less than 10 nM, respectively.

`CC(c1ccc(P(C)(C)=O)cc1N)N(C)c1nc(OC[C@@]23CCCN2C[C@H](F)C3)nc(N2CC3(C2)SCc2sc(N)c(C#N)c23)n1` (stereo partly drawn) [Compound 231, 2′-amino-1-(4-((1-(2-amino-4-(dimethylphosphoryl)phenyl)ethyl)(methyl)amino)-6-(((2R,7aS)-2-fluorotetrahydro-1H-pyrrolizin-7a(5H)-yl)methoxy)-1,3,5-triazin-2-yl)-6′H-spiro[azetidine-3,4′-thieno[3,4-b]thiophene]-3′-carbonitrile]: the IC50 in test [1] and in test [2] was no less than 20000 nM throughout.

Turning to `C[C@]1(CO)C[C@H](O)CN1c1nc(OC[C@@]23CCCN2C[C@H](F)C3)nc(N2CC3(CCc4sc(N)c(C#N)c43)C2)n1` [Compound 72, 2-amino-1′-[4-[[(2R,8S)-2-fluoro-1,2,3,5,6,7-hexahydropyrrolizin-8-yl]methoxy]-6-[(2R,4S)-4-hydroxy-2-(hydroxymethyl)-2-methyl-pyrrolidin-1-yl]-1,3,5-triazin-2-yl]spiro[5,6-dihydrocyclopenta[b]thiophene-4,3′-azetidine]-3-carbonitrile], the IC50 in test [1] and in test [2] was 100 to 1000 nM each time.
